# From US20160304957A1, “TREATMENT AND MODULATION OF GENE EXPRESSION AND SKIN AGING” (DSM NUTRITIONAL PRODUCTS LTD., priority 2006, published 2016)
# What was measured:
# [1] = β-Carotene concentration in culture medium during incubation; type: physicochemical; conditions: 24 hours of incubation, irrespective of the presence of cells
# Experimental: β-carotene-containing medium was prepared as follows. Fresh all-E-β-carotene (DSM Nutritional Products, Kaiseraugst, Switzerland) stock solution in THF (containing 0.025% BHT; Fluka Chemie A G, Switzerland) was diluted 1:2 with ethanol and added to cell culture medium to a final concentration of 1.5 μM β-carotene. The solvent concentration in the medium was 0.5% for all treatments. β-carotene-containing medium was prepared fresh for the daily medium changes.
# HaCaT cells = system: HaCaT cells
# Text: HaCaT cells were obtained from Prof. Fusenig, German Cancer Research Centre, Heidelberg. To gather cells more representative for the upper epidermal layer, we cloned the original cells by endpoint dilution. […] Cytokeratins were detected using anti-cytokeratin clones AE1/AE3 (Boehringer Mannheim, Germany) and anti-cytokeratin 1,10 antibody (Biogenesis Ltd., Poole, UK), respectively. […] Cells were propagated in FAD medium (DMEM/HAM's F12 3:1, Invitrogen); 5% NuSerum IV culture supplement and Miton™ 1:1000 (both Becton Dickinson, Bedford, Mass., USA). On day 0 of the experiment, cells were seeded at 2×10^5 cells per 60 mm dish. Cells were counted using a Coulter Multisizer (IG Instrumenten Gesellschaft, Zurich, Switzerland). […] On days 1 and 2, the media were replaced with fresh β-carotene-containing FAD medium without phenol red; 2% NuSerum; penicillin/streptomycin.
# β-Carotene stock solutions and β-carotene-containing media were prepared under reduced light conditions. All-E-β-carotene was synthesized by DSM Nutritional Products (Kaiseraugst, Switzerland). β-carotene was dissolved in tetrahydrofurane (THF containing 0.025% butyl hydroxytoluol; Fluka Chemie A G, Buchs, Switzerland). Immediately before preparing the β-carotene stock solution, THF was purified over a basic aluminum oxide grade 1 (Camag, Muttenz, Switzerland) column. The n-carotene stock solution was prepared fresh for each experiment, and stored under argon at −20° C. until use. To prepare β-carotene-containing medium, the β-carotene stock solution was first diluted 1:1 with ethanol. This β-carotene/solvent mixture was then added to the cell culture medium to give a final concentration of 0.5, 1.5, or 3 μM β-carotene. β-carotene-containing medium was prepared fresh for the daily medium changes. The solvent concentration in the medium was kept constant at 0.5% for all treatment conditions.
# All extraction and analytical procedures were carried out in brown glass, and under reduced light conditions. Acetonitrile, tert-butylmethylether, acetone and ethanol p. a. were from E. Merck K G (Darmstadt, Germany). Ammonium acetate p.a., butylated hydroxy toluene p.a., tetrahydrofuran p.a., triethylamine p.a., were from Fluka Chemie A G (Buchs, Switzerland). HPLC grade solvents for stock solutions, dilutions, and sample solvent mixtures were additionally purified over basic aluminum oxide grade 1 (Camag, Muttenz, Switzerland). To determine the β-carotene content of cells, the cell layer was washed 5 times with PBS/2% BSA. The cells were detached by trypsin/EDTA 0.05/0.02% and centrifuged at 10,000×g for 1 minute Cell pellets were lysed with acetone containing 0.025% BHT (v/w), vortex-mixed and dried in a speed-vac. The dried residue was extracted with ethanol/tBME/THF, 9:5:1, containing 0.025% of BHT (v/w) by vigorous vortex-mixing for one minute, and centrifugation for 3 minutes at 10,000×g. An aliquot of the clear supernatant was injected into the HPLC system. Cell culture medium was directly extracted with the solvent mixture described above, and the extract was treated as described for the cell pellets.
# The HPLC system consisted of a 520 pump, a 565 autosampler cooled at 6° C., a 540+ diode array detector, a SDU 2003 solvent degasser unit and the Chroma 3000 data analysis system from Bio-Tek Instruments (Basel, Switzerland). A Vydac 218TP54 column (250×4.5 mm i.d., 300 angstrom pore wide) from the Separation Group (Hesperia, USA) was used for separation.
# sunburn cells = conditions: supplementation, humans; cited from earlier work
# MMP-1 = assay: ELISA of MMP-1 release into cell culture supernatant of HaCaT cells; type: cell-based, human
# Experimental: HaCaT cells were supplemented with 0.5, 1.5, or 3 μM β-carotene for 2 days prior to UVA (270 kJ/m^2) irradiation. MMP-1 and TIMP-1 secretion 24 hours after irradiation was analyzed by ELISA. Each condition was represented by three replicates in the experiment. Values are means±standard error.
# Release of MMP-1, and TIMP-1 into cell culture supernatant was determined by ELISA at 24 hours after irradiation. MMP-1 and TIMP-1 release was measured using MMP-1 and TIMP ELISA from CALBIOCHEM (San Diego, Calif., USA). The ELISAs were performed according to the manufacturer's instructions.
smiles,measurement,setting,value
"CC1=C(/C=C/C(C)=C/C=C/C(C)=C/C=C/C=C(C)/C=C/C=C(C)/C=C/C2=C(C)CCCC2(C)C)C(C)(C)CCC1 [β-carotene, All-E-β-carotene]",β-carotene concentration in medium remaining,[1],approximately 50%
same,Retinol cellular content,HaCaT cells,<LOD
same,Retinyl Palmitate cellular content,HaCaT cells,<LOD
same,cellular β-carotene content relative to 72 hours,HaCaT cells,about half
same,retinol or retinyl esters formed from β-carotene,HaCaT cells,do not produce detectable amounts
same,time of peak cellular β-carotene concentration,HaCaT cells,72 h
same,number of sunburn cells,sunburn cells,did not alter the number of sunburn cells
same,"UVA-induced MMP-1 production, protein level",MMP-1; 24 hours after UVA,Downregulation
same,basal MMP-1 protein expression,MMP-1; unirradiated cells,tended to reduce
